# Test results from US7067523B2, “Use of pyrone carboxylates for controlling pests” (Sumitomo Chemical Company, Limited, priority 2002, dated 2006).
# System: Blattela germanica
# Assay: Topical application to adult female Blattela germanica, mortality after 7 days
# Type: in vivo
# Settings: 1 μl of 20 μg/μl acetone solution applied to ventral thorax of adult female, 10 insects per group, triplicate
# Experimental: 1 μl of a 20 μg/μl acetone solutions of each of the present compounds No. 1 and the control compound was applied onto the surface of the ventral region of the thorax of adult female Blattela germanica. These insects were kept with a feed (solid feed for rat, Oriental Yeast, Co., Ltd.) and water for 7 days. Subsequently, the insects were examined for death to obtain mortality (10 insects per group, triplicate).
# In a similar manner to the Experiment example 1, using a 20 μg/μl acetone solution of each of the present compounds Nos. 2, 3, 4, 5, 6, 7, 10, 11, 13, 14, 15, 16 and 18 instead of the present compound No. 1 and the control compound, the experiment was carried out to obtain mortality of the cockroach.
# In a similar manner to the Experiment example 1, using a 2.5 μg/μl acetone solution of each of the present compounds Nos. 5 and 6 instead of the present compound No. 1 and the control compound, the experiment was carried out to obtain mortality of the cockroach.
row,SMILES,mortality
1,"CCOC(=O)c1c(O)cc(C)oc1=O [Compound No. 1, ethyl 4-hydroxy-6-methyl-2-oxo-2H-pyrane-3-carboxylate]",100%
2,"CCC(=O)c1c(O)cc(C)oc1=O [control compound, 4-hydroxy-6-methyl-3-propanoyl-2-pyrone]",30%
